“Also recorded” adds a separate entry of the source.
What was measured:
[1] = system: rG1; test: Thermal stability of PBX1 rG1 with G4-specific ligands; format: binding
[2] = system: A375 cells; test: Colony forming assay, A375; format: cell-based, human
Procedure: (§1) Colony forming assay: for the colony forming assay, A375 and B16-F10 cells are seeded on 6-well plates with the density of 500-1000 cells. After two weeks, staining is performed by using 1% crystal violet at room temperature, rinsing is performed with PBS and tap water, and the number of colonies is counted.

[3] = system: B16-F10 cells; test: Colony forming assay, B16-F10; format: cell-based, mouse
Procedure: as §1

[4] = system: dG1; test: Thermal stability of PBX1 dG1 with G4-specific ligands; format: binding
[5] = system: PBX1 transcript; test: BG4 RNA immunoprecipitation (RIP) followed by qRT-PCR in A375 cells; format: cell-based, human
Procedure: FIGS. 2A-2G are features formed by dG1 and rG1 in vitro and in cells. In (FIG. 2A), Left: CD spectra of WT and Mut dG1, and Right: CD spectra of WT and Mut rG1. CD is circular dichroism. In (FIG. 2B), Left: gel mobility assay of WT and Mut dG1, and Right: gel mobility assay of WT and Mut rG1. In (FIG. 2C), under specified conditions, fluorescence-on assay of NMM in absence of presence of dG1 or rG1, and their G/A mutant. In (FIG. 2D), the occupancy of BG4 in the PBX1 promoter region is measured in A375 cells by BG4 chromatin immunoprecipitation (ChIP), followed by qRT-PCR. In (FIG. 2E), RNA immunoprecipitation (RIP) detection is performed to show the association between BG4 and the PBX1 transcript in A375 cells, followed by qRT-PCR. In (FIG. 2F), the occupancy of BG4 in the PBX1 promoter region is measured, by the BG4 chip, in A375 cells treated with or without PDS and TMPyP4, followed by qRT-PCR. […] SEM represents the standard error of mean. *P< 0.05, **P< 0.01***P< 0.001.
In this embodiment, several methods are further employed to verify the formation of dG1 and rG1. First, circular dichroism (CD) is used to examine the molar ellipticity of dG1 and rG1 sequences (33 nt) and mutants thereof, and the mutants are designed to eliminate G4 formation. […] N-methyl mesoporphyrin IX (NMN) is the well-known fluorescent G4-specific ligand that can be used for studies of G4 formation in vitro. Both dG1 and rG1 are found to enhance the fluorescence of N N (FIG. 2C). In addition, in this embodiment, chromatin immunoprecipitation (ChIP) and RNA immunoprecipitation (RIP) detection are performed in A375 cells using the well-known G4-specific antibody BG4. […] In summary, dG1 and rG1 can fold stable G4 structures in vitro and in cells. […] Therefore, the ability of these G4-specific ligands to interact with PBX1 G4s is investigated next.
Control:mG*mT*mC*mC*mA*mC*mA*mA*mA*mC*mA*mC*mA*mA*mC*mT*mC* mC*mT*mG*). […] This example also establishes short-term cultures of patient-derived melanoma xenograft (PDX)-derived tumor cells (PDCs) (FIG. 5D). […]

[6] = system: B16-F10 cells; test: Cell proliferation assay (CCK-8), B16-F10; format: cell-based, mouse; conditions: dose-dependent manner
Procedure: (§2) Cell proliferation assay: cell viability is determined by the cell counting kit-8 (CCK-8) according to the manufacturer's instructions (Abcam, UK). Cells (2000 cells per well) are incubated in the 96-well plate in triplicate and then added to each well at various time points at the final concentration of 10%, and incubation is continued at 37° C. After 60 minutes, the absorbance of the sample is measured at the wavelength of 450 nm. Data is analyzed using GraphPad Prism software.

[7] = system: B16-F10 cells; test: Cell scratch assay (migration), B16-F10; format: cell-based, mouse; conditions: PDS (2 μM), TMPyP4 (5 μM), 24 h
Procedure: Cell scratch assay: the cells are seeded in 12-well plate and grown for 24 hours to 80% confluency. The bare region is created by the tip across the diameter of the dish. After being treated with PDS (2 μM) and TMPyP4 (5 μM) for 24 h, the cells are washed with PBS and photographed under the microscope (Leica, Germany) to evaluate cell migration. Six micrographs are taken for each person.

[8] = system: PBX1 dG1; test: PBX1 dual luciferase reporter assay in HEK293T, A375 and B16-F10 cells; format: cell-based
Procedure: Dual luciferase reporter assay: for the PBX1 luciferase reporter gene assay, PBX1 luciferase reporter gene plasmid and pRL-TK plasmid are co-transfected into HEK293T, A375 and B16-F10 cells in the 96-well plate by Lipofectamine 2000 (Invitrogen, USA). 48 hours after transfection, cells are collected and analyzed using the Dual-Luciferase® Reporter Assay System (Promega, USA). The firefly activity is normalized to the activity of Renilla luciferase.
Given that G4s in the promoter and transcript are involved in the regulation of transcription and translation related processes, it is speculated that dG1 in the PBX1 promoter may regulate the transcription of PBX1, and rG1 in 5′UTR of the PBX1 transcript may regulate the transcription of PBX1. In addition, the luciferase reporter assay is first performed. The dG1 promoter sequence (designated as dG1-wt) and mutated dG1 promoter sequence (designated as dG1-mut) of PBX1 are cloned into pGL3 luciferase reporter vector. […] In addition, this embodiment further constructs an enhanced green fluorescent protein (EGFP) reporter gene system, to study the effect of rG1 on translation. The rG1 transcript sequence (designated as rG1-wt) and mutant rG1 transcript sequence (designated as rG1-mut) of PBX1 are fused to 5′UTR of EGFP, and the reporter gene vector is transfected into HEK293T cells. By confocal fluorescence experiments, the EGFP fluorescence intensity of rG1-WT is less than that of rG1-MUT, and PDS or TMPyP4 decreases the fluorescence intensity of rG1-WT in HEK293T cells (FIG. 3B). Finally, this embodiment studies the potential effect of PBX1 G4s on PBX1 expression of A375 and B16-F10 cells.

[9] = system: B16-F10 cells; test: In vitro cell invasion experiment (Transwell), B16-F10; format: cell-based, mouse; conditions: Transwell with Matrigel, 24 hours
Procedure: In vitro cell invasion experiment: in the Transwell invasion experiment, Matrigel is used as an invasive supraluminal membrane barrier (Corning, USA). The lower transwell chamber is filled with 2.5% serum containing DMEM medium. The cells are suspended at an upper chamber. After incubation for 24 hours, the filter is removed, and cells on the membrane are fixed by using methanol. Cells stained with 0.5% crystal violet infiltrate the surrounding matrix. The dye is washed with water and the cells are examined under the microscope (Leica, Germany). Six micrographs are taken for each person.

[10] = system: A375 cells; test: Cell proliferation assay (CCK-8), A375; format: cell-based, human; conditions: dose-dependent manner
Procedure: as §2

| Compound | thermal stability of rG1 [1] | colony formation [2] | colony formation [3] | thermal stability of dG1 [4] | PBX1 transcript pulled down by BG4 [5] | cell viability (activity) measured by CCK8 [6] | migration [7] | luciferase activity of dG1-mut transfected cells [8] | luciferase activity of dG1-wt transfected cells [8] | invasion [9] | cell viability (activity) measured by CCK8 [10] |
| --- | --- | --- | --- | --- | --- | --- | --- | --- | --- | --- | --- |
| NCCOc1cc(C(=O)Nc2cc(OCCN)c3ccccc3n2)nc(C(=O)Nc2cc(OCCN)c3ccccc3n2)c1 [PDS, Pyridostatin] | remarkably enhance | inhibits | inhibits | remarkably enhance | enhance | reduce; also recorded: remarkably reduces | inhibit | does not affect | remarkably inhibits | inhibit | reduce; also recorded: remarkably reduces |
| C[n+]1ccc(-c2c3nc(c(-c4cc[n+](C)cc4)c4ccc([nH]4)c(-c4cc[n+](C)cc4)c4ccc([nH]4)c(-c4cc[n+](C)cc4)c4nc2C=C4)C=C3)cc1 [TMPyP4] | remarkably enhance | inhibits | inhibits | remarkably enhance | enhance | reduce; also recorded: remarkably reduces | inhibit | does not affect | remarkably inhibits | inhibit | reduce; also recorded: remarkably reduces |
